Reference: ChEMBL document CHEMBL5465560, “Selectivity Literature for EUbOPEN Chemogenomic Library” (2024)

How the values were obtained:
[1] = molecular target: Glycogen synthase kinase-3 beta (Homo sapiens, UniProt P49841); test: Selectivity interaction (Kinase panel (DSF assay)) EUB0001558a GSK3B
[2] = molecular target: Calcium/calmodulin-dependent protein kinase type 1B (Homo sapiens) (UniProt Q6P2M8); test: Selectivity interaction (KinomeScan (DiscoverX)) EUB0000229b PNCK; details: at 10 µM
[3] = molecular target: Platelet-derived growth factor receptor alpha (Homo sapiens, UniProt P16234); test: Selectivity interaction (Upstate Kinase Profiler service (Millipore)) EUB0000056c PDGFRA; details: at 1 µM
[4] = molecular target: Calcium/calmodulin-dependent protein kinase type II subunit gamma (Homo sapiens) (UniProt Q13555); test: Selectivity interaction (ProQinase) EUB0000171b CAMK2G
[5] = molecular target: Mitotic checkpoint serine/threonine-protein kinase BUB1 (Homo sapiens, UniProt O43683); test: Selectivity interaction (KinomeScan (DiscoverX)) EUB0001079a BUB1; details: at 1 µM
[6] = molecular target: Phosphatidylinositol 3-kinase catalytic subunit type 3 (Homo sapiens, UniProt Q8NEB9); test: Selectivity interaction (Kinase panel (ADP-Glow assay)) EUB0000877a PIK3C3
[7] = molecular target: T1, Tyrosine-protein kinase TXK (Homo sapiens) (UniProt P42681); test: Selectivity interaction (Kinase panel (Z-LYTE Assay)) EUB0001632a TXK; details: at 10 µM
T1 sequence (whole entry): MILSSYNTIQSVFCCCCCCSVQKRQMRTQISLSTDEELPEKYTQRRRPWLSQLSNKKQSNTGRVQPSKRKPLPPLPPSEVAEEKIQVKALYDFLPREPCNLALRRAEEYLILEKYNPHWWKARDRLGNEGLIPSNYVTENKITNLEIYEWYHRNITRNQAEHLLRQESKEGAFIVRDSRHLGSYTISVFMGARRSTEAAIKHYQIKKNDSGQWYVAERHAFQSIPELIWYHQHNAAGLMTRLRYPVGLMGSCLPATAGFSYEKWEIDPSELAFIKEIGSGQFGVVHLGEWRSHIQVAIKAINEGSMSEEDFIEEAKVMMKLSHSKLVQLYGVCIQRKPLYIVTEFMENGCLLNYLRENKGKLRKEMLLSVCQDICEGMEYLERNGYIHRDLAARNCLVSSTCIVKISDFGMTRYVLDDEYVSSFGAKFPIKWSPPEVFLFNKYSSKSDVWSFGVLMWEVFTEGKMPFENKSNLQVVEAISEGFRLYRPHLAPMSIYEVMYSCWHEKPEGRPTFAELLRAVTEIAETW

[8] = molecular target: Tyrosine-protein kinase FRK (Homo sapiens) (UniProt P42685); test: Selectivity interaction (Kinase panel (Invitrogen)) EUB0000639a FRK; details: at 200 nM
[9] = molecular target: T2, Serine/threonine-protein kinase Nek5 (Homo sapiens) (UniProt Q6P3R8); test: Selectivity interaction (KinomeScan (DiscoverX)) EUB0000045b NEK5
T2 sequence (whole entry): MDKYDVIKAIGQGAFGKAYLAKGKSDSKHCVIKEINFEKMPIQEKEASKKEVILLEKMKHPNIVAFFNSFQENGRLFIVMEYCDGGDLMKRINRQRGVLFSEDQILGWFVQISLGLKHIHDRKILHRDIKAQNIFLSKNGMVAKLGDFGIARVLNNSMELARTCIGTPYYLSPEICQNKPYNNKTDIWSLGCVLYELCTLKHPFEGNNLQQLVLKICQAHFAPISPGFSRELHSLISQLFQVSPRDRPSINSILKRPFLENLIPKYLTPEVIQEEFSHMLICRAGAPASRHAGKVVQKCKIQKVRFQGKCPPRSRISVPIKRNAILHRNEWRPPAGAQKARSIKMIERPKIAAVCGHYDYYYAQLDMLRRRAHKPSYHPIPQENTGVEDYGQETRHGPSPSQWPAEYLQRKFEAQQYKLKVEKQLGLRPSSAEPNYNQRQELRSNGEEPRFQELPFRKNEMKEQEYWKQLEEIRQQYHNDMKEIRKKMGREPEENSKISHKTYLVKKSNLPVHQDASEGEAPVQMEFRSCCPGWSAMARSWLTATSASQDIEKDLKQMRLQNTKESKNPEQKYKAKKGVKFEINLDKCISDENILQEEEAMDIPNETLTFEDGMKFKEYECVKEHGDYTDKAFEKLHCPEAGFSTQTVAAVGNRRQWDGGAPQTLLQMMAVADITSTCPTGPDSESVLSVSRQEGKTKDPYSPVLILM

[10] = molecular target: BMP-2-inducible protein kinase (Homo sapiens) (UniProt Q9NSY1); test: Selectivity interaction (KinomeScan (DiscoverX)) EUB0001619a BMP2K; details: at 1 µM

Sequence of Calcium/calmodulin-dependent protein kinase type II subunit gamma (Homo sapiens) (Q13555 whole entry): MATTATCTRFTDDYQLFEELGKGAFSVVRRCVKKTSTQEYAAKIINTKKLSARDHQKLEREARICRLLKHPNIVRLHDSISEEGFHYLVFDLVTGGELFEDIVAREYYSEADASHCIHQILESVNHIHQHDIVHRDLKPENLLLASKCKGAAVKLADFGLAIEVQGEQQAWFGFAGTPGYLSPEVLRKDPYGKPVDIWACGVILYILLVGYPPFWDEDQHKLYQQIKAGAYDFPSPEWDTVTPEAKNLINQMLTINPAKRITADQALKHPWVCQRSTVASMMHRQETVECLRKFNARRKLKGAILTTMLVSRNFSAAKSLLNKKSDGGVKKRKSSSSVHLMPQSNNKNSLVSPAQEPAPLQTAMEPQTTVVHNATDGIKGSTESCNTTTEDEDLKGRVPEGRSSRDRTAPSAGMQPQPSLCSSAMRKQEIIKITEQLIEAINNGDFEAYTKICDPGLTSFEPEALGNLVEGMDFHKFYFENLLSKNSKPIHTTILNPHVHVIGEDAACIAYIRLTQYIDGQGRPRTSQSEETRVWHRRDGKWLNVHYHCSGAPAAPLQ
Sequence of Tyrosine-protein kinase FRK (Homo sapiens) (P42685 whole entry): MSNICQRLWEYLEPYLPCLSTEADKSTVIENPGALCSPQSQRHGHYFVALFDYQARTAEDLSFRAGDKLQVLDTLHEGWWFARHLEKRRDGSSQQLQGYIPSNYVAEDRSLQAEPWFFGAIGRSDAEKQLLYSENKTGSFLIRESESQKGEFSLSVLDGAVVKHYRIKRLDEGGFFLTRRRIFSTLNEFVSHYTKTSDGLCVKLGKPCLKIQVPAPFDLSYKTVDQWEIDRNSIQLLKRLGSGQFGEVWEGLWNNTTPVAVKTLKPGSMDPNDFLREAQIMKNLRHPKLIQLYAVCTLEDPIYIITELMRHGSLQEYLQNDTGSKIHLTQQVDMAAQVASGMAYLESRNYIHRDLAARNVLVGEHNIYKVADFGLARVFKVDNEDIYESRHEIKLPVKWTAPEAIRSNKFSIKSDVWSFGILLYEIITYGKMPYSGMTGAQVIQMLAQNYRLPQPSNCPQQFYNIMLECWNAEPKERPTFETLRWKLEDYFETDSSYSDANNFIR
Sequence of Platelet-derived growth factor receptor alpha (P16234 whole entry): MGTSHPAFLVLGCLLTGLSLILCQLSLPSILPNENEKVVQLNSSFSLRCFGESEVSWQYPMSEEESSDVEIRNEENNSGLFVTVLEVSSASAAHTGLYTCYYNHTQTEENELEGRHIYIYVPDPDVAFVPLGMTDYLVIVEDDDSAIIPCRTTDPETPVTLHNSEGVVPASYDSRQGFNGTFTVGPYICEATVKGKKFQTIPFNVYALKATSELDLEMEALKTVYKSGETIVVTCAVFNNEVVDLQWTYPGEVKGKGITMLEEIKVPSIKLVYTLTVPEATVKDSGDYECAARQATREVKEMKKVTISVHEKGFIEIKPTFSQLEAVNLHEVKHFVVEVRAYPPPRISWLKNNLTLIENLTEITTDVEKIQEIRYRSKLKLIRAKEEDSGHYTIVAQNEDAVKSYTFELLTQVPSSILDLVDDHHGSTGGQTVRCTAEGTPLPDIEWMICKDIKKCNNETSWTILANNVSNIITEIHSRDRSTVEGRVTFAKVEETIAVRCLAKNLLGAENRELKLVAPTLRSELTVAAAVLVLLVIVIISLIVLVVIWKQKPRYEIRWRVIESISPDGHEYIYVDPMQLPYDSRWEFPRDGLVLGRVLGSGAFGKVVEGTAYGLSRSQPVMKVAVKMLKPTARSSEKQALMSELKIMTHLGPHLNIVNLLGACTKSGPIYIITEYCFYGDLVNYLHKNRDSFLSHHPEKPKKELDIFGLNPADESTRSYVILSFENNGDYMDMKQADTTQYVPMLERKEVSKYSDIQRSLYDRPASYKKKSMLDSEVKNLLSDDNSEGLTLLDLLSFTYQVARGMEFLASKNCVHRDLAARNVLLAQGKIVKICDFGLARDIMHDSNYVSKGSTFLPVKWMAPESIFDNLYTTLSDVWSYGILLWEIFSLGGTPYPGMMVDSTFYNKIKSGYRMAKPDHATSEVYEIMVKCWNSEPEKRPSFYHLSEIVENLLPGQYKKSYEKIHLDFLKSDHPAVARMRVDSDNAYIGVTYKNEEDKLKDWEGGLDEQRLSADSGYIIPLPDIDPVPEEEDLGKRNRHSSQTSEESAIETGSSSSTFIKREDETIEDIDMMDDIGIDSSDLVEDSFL
Sequence of Calcium/calmodulin-dependent protein kinase type 1B (Homo sapiens) (Q6P2M8 whole entry): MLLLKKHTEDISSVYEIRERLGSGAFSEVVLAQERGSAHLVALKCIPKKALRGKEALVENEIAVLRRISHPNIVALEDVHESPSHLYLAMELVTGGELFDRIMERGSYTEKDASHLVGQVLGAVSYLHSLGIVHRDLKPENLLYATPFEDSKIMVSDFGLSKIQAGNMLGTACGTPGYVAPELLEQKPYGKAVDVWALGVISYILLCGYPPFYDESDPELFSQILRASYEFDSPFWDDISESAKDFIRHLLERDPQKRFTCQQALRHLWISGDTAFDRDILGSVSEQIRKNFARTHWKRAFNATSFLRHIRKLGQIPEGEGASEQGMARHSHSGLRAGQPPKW
Sequence of Glycogen synthase kinase-3 beta (P49841 whole entry, looked up): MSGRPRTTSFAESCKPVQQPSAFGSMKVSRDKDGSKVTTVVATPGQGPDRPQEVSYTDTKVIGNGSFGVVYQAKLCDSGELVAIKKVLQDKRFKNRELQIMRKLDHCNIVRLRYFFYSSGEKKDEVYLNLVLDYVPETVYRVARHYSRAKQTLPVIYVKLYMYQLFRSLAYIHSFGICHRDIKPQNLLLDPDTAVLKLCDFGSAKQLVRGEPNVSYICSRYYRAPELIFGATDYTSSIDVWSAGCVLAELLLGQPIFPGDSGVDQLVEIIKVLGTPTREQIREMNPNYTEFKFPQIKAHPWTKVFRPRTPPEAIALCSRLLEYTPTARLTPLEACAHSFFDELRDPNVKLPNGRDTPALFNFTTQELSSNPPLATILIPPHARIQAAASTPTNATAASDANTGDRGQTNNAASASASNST
Sequence of Phosphatidylinositol 3-kinase catalytic subunit type 3 (Q8NEB9 whole entry): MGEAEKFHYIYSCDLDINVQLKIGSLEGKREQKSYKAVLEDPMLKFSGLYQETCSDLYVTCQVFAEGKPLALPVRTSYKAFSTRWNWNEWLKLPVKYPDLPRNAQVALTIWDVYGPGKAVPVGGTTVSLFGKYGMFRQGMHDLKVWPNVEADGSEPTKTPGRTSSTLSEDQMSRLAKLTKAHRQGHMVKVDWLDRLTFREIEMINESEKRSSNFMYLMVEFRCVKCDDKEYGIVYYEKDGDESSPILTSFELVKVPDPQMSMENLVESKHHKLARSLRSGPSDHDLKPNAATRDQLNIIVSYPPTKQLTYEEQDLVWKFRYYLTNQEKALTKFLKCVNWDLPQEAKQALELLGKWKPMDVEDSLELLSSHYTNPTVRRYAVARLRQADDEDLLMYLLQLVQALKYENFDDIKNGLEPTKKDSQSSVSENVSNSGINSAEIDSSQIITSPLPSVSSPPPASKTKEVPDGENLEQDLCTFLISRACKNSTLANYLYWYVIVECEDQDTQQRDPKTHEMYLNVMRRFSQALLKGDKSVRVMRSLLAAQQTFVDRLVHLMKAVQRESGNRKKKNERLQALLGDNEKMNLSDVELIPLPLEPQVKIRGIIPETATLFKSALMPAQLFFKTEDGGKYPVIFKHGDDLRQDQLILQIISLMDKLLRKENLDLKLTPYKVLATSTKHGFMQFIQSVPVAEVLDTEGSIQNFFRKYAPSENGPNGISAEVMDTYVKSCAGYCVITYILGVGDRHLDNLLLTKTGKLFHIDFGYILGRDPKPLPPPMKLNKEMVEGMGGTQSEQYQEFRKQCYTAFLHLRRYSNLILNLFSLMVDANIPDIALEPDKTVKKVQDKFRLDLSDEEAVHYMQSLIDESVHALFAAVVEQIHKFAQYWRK
Sequence of Mitotic checkpoint serine/threonine-protein kinase BUB1 (O43683 whole entry, looked up): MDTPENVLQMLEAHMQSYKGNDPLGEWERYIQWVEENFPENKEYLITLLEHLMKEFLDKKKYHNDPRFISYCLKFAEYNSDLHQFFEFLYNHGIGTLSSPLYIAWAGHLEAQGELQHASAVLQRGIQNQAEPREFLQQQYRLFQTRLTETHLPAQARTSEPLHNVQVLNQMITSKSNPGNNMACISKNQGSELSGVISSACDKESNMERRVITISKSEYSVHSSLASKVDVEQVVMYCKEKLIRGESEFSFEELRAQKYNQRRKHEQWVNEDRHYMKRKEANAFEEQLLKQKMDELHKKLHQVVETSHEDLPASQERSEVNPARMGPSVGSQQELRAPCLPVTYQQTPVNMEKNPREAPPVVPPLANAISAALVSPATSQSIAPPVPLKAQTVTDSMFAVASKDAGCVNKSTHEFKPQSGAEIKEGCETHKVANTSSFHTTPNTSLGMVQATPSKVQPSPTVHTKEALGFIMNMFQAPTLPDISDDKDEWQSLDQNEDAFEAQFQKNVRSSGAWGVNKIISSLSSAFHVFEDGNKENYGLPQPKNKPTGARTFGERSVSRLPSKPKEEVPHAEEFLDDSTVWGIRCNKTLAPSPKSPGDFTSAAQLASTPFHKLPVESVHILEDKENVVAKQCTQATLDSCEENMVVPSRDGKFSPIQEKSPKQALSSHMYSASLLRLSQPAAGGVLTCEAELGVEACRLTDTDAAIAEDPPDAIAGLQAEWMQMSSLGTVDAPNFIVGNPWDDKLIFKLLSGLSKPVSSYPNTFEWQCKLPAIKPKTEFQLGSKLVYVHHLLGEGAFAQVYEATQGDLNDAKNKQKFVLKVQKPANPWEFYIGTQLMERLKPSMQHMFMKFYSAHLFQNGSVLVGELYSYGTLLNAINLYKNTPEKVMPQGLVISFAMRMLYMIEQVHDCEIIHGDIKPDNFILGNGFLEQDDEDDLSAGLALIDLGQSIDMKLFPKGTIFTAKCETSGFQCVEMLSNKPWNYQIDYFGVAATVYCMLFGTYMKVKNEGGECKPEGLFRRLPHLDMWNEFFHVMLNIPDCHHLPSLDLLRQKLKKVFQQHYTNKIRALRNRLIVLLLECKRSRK

Question: For `CC(C)(O)[C@H](F)CN1Cc2cc(NC(=O)c3cnn4cccnc34)c(N3CCOCC3)cc2C1=O`, which dTM [1] is on record?
Answer: Its dTM is 0.9 K.

Question: Which % binding [2] does the source give for `COc1cc(N(C)c2ccnc3ccc(C(F)(F)F)cc23)cc(OC)c1OC` here?
Answer: The % binding was 98%.

Question: For `Cc1ccc(-c2ccc3c(ccc4sc5c(c43)NC[C@@H](C)NC5=O)n2)cn1`, which % of inhibition [3] is on record?
Answer: Its % of inhibition is -24%.

Question: With `C=CC(=O)Nc1cccc(C(=O)Nc2ccc(Nc3cc(-c4[nH]c(SC)nc4C)ccn3)cc2)c1` as the compound, how does the % of control ([4]; at 1 µM) read?
Answer: Its % of control is 81%.

Question: And the % of control ([4]; at 5 µM)?
Answer: Its % of control is 54%.

Question: `Nc1cnc(N2CCc3cc(S(=O)(=O)Nc4c(F)cc(Cl)cc4F)cc(N4CCCC4=O)c32)nc1` [TP-020n] was tested. Which % of control [5] did it give?
Answer: The % of control was 100%.

Question: For `CCC(=O)N1CC[C@H](Nc2ncnc3c2CN(c2cnc(OC)c(C(F)(F)F)c2)CC3)C1` [LENIOLISIB], which IC50 [6] is on record?
Answer: Its IC50 is > 9.1 µM.

Question: Which % of control [7] does the source give for `Cn1cc(-n2cnc3c(NCc4nc5cc(Cl)c(Cl)cc5[nH]4)nc(N4CCOCC4)nc32)cn1` here?
Answer: Its % of control is 12.2%.

Question: For `CC[C@@H]1[C@H](F)C(=O)N[C@@H]1COc1nccc2cc(C(N)=O)c(OC)cc12` [ZIMLOVISERTIB], which % of inhibition [8] is on record?
Answer: Its % of inhibition is 6.43%.

Question: With `C=CC(=O)Nc1cc(-n2c(=O)ccc3cnc4ccc(-c5ccc(NS(C)(=O)=O)cc5)cc4c32)ccc1C` as the compound, how does the % of control ([9]; at 1 µM) read?
Answer: Its % of control is 100%.

Question: And the % of control ([9]; at 10 µM)?
Answer: The % of control was 84%.

Question: How did the % of control [10] turn out when `N#Cc1cccc(-c2c[nH]c3ncnc(N4CCOCC4)c23)c1` was run?
Answer: The % of control was 54%.
